From US8853207B2 (Development Center for Biotechnology, priority 2012, dated 2014)
Where a name gives a salt, the structure may show the parent alone.

Each compound was assayed against FLT3 kinase (FLT3 kinase domain alone, Upstate) (Homo sapiens (Human), UniProt P36888) (assay: FLT3 kinase assay ([33P] incorporation into substrate)). Conditions: 100 μM ATP, 30° C., 30 minutes; read-out: IC50 against FLT3.
FLT3 kinase (FLT3 kinase domain alone, Upstate), sequence (P36888 610-943): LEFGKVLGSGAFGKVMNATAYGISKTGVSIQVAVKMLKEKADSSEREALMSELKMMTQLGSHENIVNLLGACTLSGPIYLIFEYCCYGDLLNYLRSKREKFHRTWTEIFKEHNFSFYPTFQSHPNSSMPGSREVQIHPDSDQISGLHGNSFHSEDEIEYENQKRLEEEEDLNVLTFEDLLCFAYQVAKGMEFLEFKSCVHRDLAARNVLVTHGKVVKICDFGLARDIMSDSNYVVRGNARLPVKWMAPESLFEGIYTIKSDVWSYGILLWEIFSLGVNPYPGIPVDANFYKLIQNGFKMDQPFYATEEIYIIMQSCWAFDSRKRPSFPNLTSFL
Type: biochemical
Experimental: Inhibition of FLT3 kinase activity by compounds disclosed herein was quantified by measuring the amount of [^33P] incorporated into the substrate in the presence of a test compound. Briefly, a reaction mixture of 25 μL final volume containing 5 ng of FLT3 kinase (FLT3 kinase domain alone, Upstate), 5 μg of the substrate [(Poly (Glu-Tyr, 4:1), Sigma], kinase reaction buffer (20 mM MOPS pH 7.0, 1 mM EDTA, 5% glycerol, 0.01% Brij-35, 0.1% β-mercaptoethanol, 1 mg/mL BSA, 100 μM ATP, 0.1 μCi per well [^33P]-γ-ATP (2,500-3,000 Ci/mmol)), and a test compound (diluted from 9 μM to the desired final concentration by 4% DMSO) or DMSO (as the control) was incubated at 30° C. for 30 minutes. The reaction was stopped by adding 5 μL of 3% phosphoric acid solution. The resultant solution (30 μL) was later harvested by a UniFilter Plate GF/B (PerkinElmer) followed by adding 30 μL of the scintillation cocktail (MicroScint 20, PerkinElmer) to the well. The radioactivity retained on the filter membrane was measured by a luminescence counter (PerkinElmer). The results were analyzed by using linear regression software (GraphPad Prism 4; GraphPad Software Inc.).
`Clc1ccc(Nc2n[nH]c3c2Cc2sccc2-3)cc1` [Example-32, (4-Chloro-phenyl)-(4,7-dihydro-1-thia-4,5-diaza-cyclopenta[a]pentalen-6-yl)-amine] showed an IC50 of 100 to 499 nM.
In the case of `COc1ccc(-c2n[nH]c3c2Cc2sc(-c4ccc(F)cc4)cc2-3)cc1` [Example-71, 2-(4-Fluoro-phenyl)-6-(4-methoxy-phenyl)-4,7-dihydro-1-thia-4,5-diaza-cyclopenta[a]pentalene], the IC50 is reported as less than 100 nM.
Compound `Clc1cccc(Nc2[nH]nc3c2Cc2sccc2-3)c1` [Example-25, (3-Chloro-phenyl)-(4,7-dihydro-1-thia-4,5-diaza-cyclopenta[a]pentalen-6-yl)-amine] has an IC50 of less than 100 nM.
`COc1cc(-c2ccc(-c3n[nH]c4c3Cc3sccc3-4)cc2)ccc1O` [Example-9, 4′-(4,7-Dihydro-1-thia-4,5-diaza-cyclopenta[a]pentalen-6-yl)-3-methoxy-biphenyl-4-ol] gave an IC50 of less than 100 nM.
`Clc1ccccc1Nc1n[nH]c2c1Cc1sccc1-2` [Example-31, (2-Chloro-phenyl)-(4,7-dihydro-1-thia-4,5-diaza-cyclopenta[a]pentalen-6-yl)-amine] showed an IC50 of 100 to 499 nM.
With `Nc1cccc(-c2n[nH]c3c2Cc2sccc2-3)c1` [Example-59, 3-(4,7-Dihydro-1-thia-4,5-diaza-cyclopenta[a]pentalen-6-yl)-phenylamine hydrochloride] the IC50 was 100 to 499 nM.
With `c1ccc(-c2n[nH]c3c2Cc2sccc2-3)cc1` [Example-6, 6-Phenyl-4,7-dihydro-1-thia-4,5-diaza-cyclopenta[a]pentalene] the IC50 was 100 to 499 nM.
For `Nc1ccc(-c2cc3c(s2)Cc2c(-c4ccc(O)cc4)n[nH]c2-3)cn1` [Example-92, 4-[2-(6-Amino-pyridin-3-yl)-4,7-dihydro-1-thia-4,5-diaza-cyclopenta[a]pentalen-6-yl]-phenol], the IC50 was less than 100 nM.
For `Nc1ccc(-c2n[nH]c3c2Cc2sccc2-3)cn1` [Example-66, 5-(4,7-Dihydro-1-thia-4,5-diaza-cyclopenta[a]pentalen-6-yl)-pyridin-2-ylamine hydrochloride], the IC50 was less than 100 nM.
`COc1ccc(-c2n[nH]c3c2Cc2sc(-c4cnc(N)nc4)cc2-3)cc1` [Example-79, 5-[6-(4-Methoxy-phenyl)-4,7-dihydro-1-thia-4,5-diaza-cyclopenta[a]pentalen-2-yl]-pyrimidin-2-ylamine] gave an IC50 of less than 100 nM.
In the case of `FC(F)(F)c1ccc(Nc2n[nH]c3c2Cc2sccc2-3)cc1` [Example-35, (4,7-Dihydro-1-thia-4,5-diaza-cyclopenta[a]pentalen-6-yl)-(4-trifluoromethyl-phenyl)-amine], the IC50 is reported as 100 to 499 nM.
In the case of `c1cc(-c2n[nH]c3c2Cc2sccc2-3)ccn1` [Example-60, 6-Pyridin-4-yl-4,7-dihydro-1-thia-4,5-diaza-cyclopenta[a]pentalene], the IC50 is reported as less than 100 nM.
Work on “6-[4-(4-Methyl-piperazin-1-yl)-phenyl]-2-pyridin-3-yl-4,7-dihydro-1-thia-4,5-diaza-cyclopenta[a]pentalene hydrochloride [Example-90]” yielded an IC50 of less than 100 nM.
Compound `COc1ccc(-c2n[nH]c3c2Cc2sc(-c4cncc(N)c4)cc2-3)cc1` [Example-91, 5-[6-(4-Methoxy-phenyl)-4,7-dihydro-1-thia-4,5-diaza-cyclopenta[a]pentalen-2-yl]-pyridin-3-ylamine hydrochloride] has an IC50 of less than 100 nM.
Compound `COc1ccc(-c2cc3c(s2)Cc2c(-c4ccc(OC)cc4)n[nH]c2-3)cc1` [Example-73, 2,6-Bis-(4-methoxy-phenyl)-4,7-dihydro-1-thia-4,5-diaza-cyclopenta[a]pentalene] has an IC50 of less than 100 nM.
Compound `Brc1cccc(-c2n[nH]c3c2Cc2sccc2-3)c1` [Example-47, 6-(3-Bromo-phenyl)-4,7-dihydro-1-thia-4,5-diaza-cyclopenta[a]pentalene] has an IC50 of less than 100 nM.
`Fc1ccc(-c2n[nH]c3c2Cc2sccc2-3)cc1` [Example-40, 6-(4-Fluoro-phenyl)-4,7-dihydro-1-thia-4,5-diaza-cyclopenta[a]pentalene] showed an IC50 of 100 to 499 nM.
`c1cncc(Nc2ccc(-c3n[nH]c4c3Cc3sccc3-4)cc2)c1` [Example-63, [4-(4,7-Dihydro-1-thia-4,5-diaza-cyclopenta[a]pentalen-6-yl)-phenyl]-pyridin-3-yl-amine] was tested, and the IC50 was less than 100 nM.
For `FC(F)(F)c1ccc(-c2ccc(-c3n[nH]c4c3Cc3sccc3-4)cc2)cc1` [Example-19, 6-(4′-Trifluoromethyl-biphenyl-4-yl)-4,7-dihydro-1-thia-4,5-diaza-cyclopenta[a]pentalene], the IC50 was greater than 1000 nM.
Compound `Clc1cccc(Nc2n[nH]c3c2Cc2sccc2-3)c1Cl` [Example-54, (2,3-Dichloro-phenyl)-(4,7-dihydro-1-thia-4,5-diaza-cyclopenta[a]pentalen-6-yl)-amine] has an IC50 of 100 to 499 nM.
`FC(F)(F)Oc1ccccc1Nc1n[nH]c2c1Cc1sccc1-2` [Example-48, (4,7-Dihydro-1-thia-4,5-diaza-cyclopenta[a]pentalen-6-yl)-(2-trifluoromethoxy-phenyl)-amine] gave an IC50 greater than 1000 nM.
`c1cc2c(s1)Cc1c(-c3ccc(N4CCOCC4)cc3)n[nH]c1-2` [Example-85, 6-(4-Morpholin-4-yl-phenyl)-4,7-dihydro-1-thia-4,5-diaza-cyclopenta[a]pentalene] gave an IC50 of less than 100 nM.
In the case of `Brc1ccc(-c2n[nH]c3c2Cc2sc(Br)cc2-3)cn1` [Example-67, 2-Bromo-6-(6-bromo-pyridin-3-yl)-4,7-dihydro-1-thia-4,5-diaza-cyclopenta[a]pentalene], the IC50 is reported as 100 to 499 nM.
For `[O-][n+]1cccc(-c2n[nH]c3c2Cc2sccc2-3)c1` [Example-28, 6-(1-Oxy-pyridin-3-yl)-4,7-dihydro-1-thia-4,5-diaza-cyclopenta[a]pentalene], the IC50 was greater than 1000 nM.
Compound `c1ccc(-c2n[nH]c3c2Cc2sccc2-3)nc1` [Example-58, 6-Pyridin-2-yl-4,7-dihydro-1-thia-4,5-diaza-cyclopenta[a]pentalene] has an IC50 of 100 to 499 nM.
“6-(3-Fluoro-phenyl)-4,7-dihydro-1-thia-4,5-diaza-cyclopenta[a]pentalene [Example-38]” showed an IC50 of 100 to 499 nM.
For `Clc1cccc(-c2n[nH]c3c2Cc2sccc2-3)c1` [Example-39, 6-(3-Chloro-phenyl)-4,7-dihydro-1-thia-4,5-diaza-cyclopenta[a]pentalene], the IC50 was less than 100 nM.
Compound `COc1ccc(-c2n[nH]c3c2Cc2sc(-c4cccc(N)c4)cc2-3)cc1` [Example-86, 3-[6-(4-Methoxy-phenyl)-4,7-dihydro-1-thia-4,5-diaza-cyclopenta[a]pentalen-2-yl]-phenylamine] has an IC50 of less than 100 nM.
With `COc1ccc(Nc2n[nH]c3c2Cc2sccc2-3)cc1OC` [Example-24, (4,7-Dihydro-1-thia-4,5-diaza-cyclopenta[a]pentalen-6-yl)-(3,4-dimethoxy-phenyl)-amine] the IC50 was less than 100 nM.
Compound `Clc1cc(Cl)cc(-c2ccc(-c3n[nH]c4c3Cc3sccc3-4)cc2)c1` [Example-18, 6-(3′,5′-Dichloro-biphenyl-4-yl)-4,7-dihydro-1-thia-4,5-diaza-cyclopenta[a]pentalene] has an IC50 of 100 to 499 nM.
With “6-(2-Fluoro-phenyl)-4,7-dihydro-1-thia-4,5-diaza-cyclopenta[a]pentalene [Example-41]” the IC50 was less than 100 nM.
Work on `COc1cccc(-c2n[nH]c3c2Cc2sccc2-3)c1` [Example-3, 6-(3-Methoxy-phenyl)-4,7-dihydro-1-thia-4,5-diaza-cyclopenta[a]pentalene] yielded an IC50 of 100 to 499 nM.
`c1cc(Nc2ccc(-c3n[nH]c4c3Cc3sccc3-4)cc2)ccn1` [Example-62, [4-(4,7-Dihydro-1-thia-4,5-diaza-cyclopenta[a]pentalen-6-yl)-phenyl]-pyridin-4-yl-amine hydrochloride] gave an IC50 of less than 100 nM.
For `COc1ccc(-c2n[nH]c3c2Cc2sc(-c4ccccc4)cc2-3)cc1` [Example-65, 6-(4-Methoxy-phenyl)-2-phenyl-4,7-dihydro-1-thia-4,5-diaza-cyclopenta[a]pentalene], the IC50 was less than 100 nM.
For `O=[N+]([O-])c1ccc(-c2n[nH]c3c2Cc2sccc2-3)cc1` [Example-5, 6-(4-Nitro-phenyl)-4,7-dihydro-1-thia-4,5-diaza-cyclopenta[a]pentalene], the IC50 was 100 to 499 nM.
With `CN1CCN(c2ccc(-c3n[nH]c4c3Cc3sc(-c5ccc(N)nc5)cc3-4)cc2)CC1` [Example-89, 5-{6-[4-(4-Methyl-piperazin-1-yl)-phenyl]-4,7-dihydro-1-thia-4,5-diaza-cyclopenta[a]pentalen-2-yl}-pyridin-2-ylamine hydrochloride] the IC50 was less than 100 nM.
Work on `Fc1cccc(Nc2ccc(-c3n[nH]c4c3Cc3sccc3-4)cc2)c1` [Example-37, [4-(4,7-Dihydro-1-thia-4,5-diaza-cyclopenta[a]pentalen-6-yl)-phenyl]-(3-fluoro-phenyl)-amine] yielded an IC50 of less than 100 nM.
`COc1ccc(Nc2ccc(-c3n[nH]c4c3Cc3sccc3-4)cc2)cc1` [Example-8, [4-(4,7-Dihydro-1-thia-4,5-diaza-cyclopenta[a]pentalen-6-yl)-phenyl]-(4-methoxy-phenyl)-amine] was tested, and the IC50 was 100 to 499 nM.
With `Oc1ccc(-c2ccc(-c3n[nH]c4c3Cc3sccc3-4)cc2)cc1` [Example-11, 4′-(4,7-Dihydro-1-thia-4,5-diaza-cyclopenta[a]pentalen-6-yl)-biphenyl-4-ol] the IC50 was less than 100 nM.
`c1cc2c(s1)Cc1c(-c3ccc(N4CCCC4)cc3)n[nH]c1-2` [Example-84, 6-(4-Pyrrolidin-1-yl-phenyl)-4,7-dihydro-1-thia-4,5-diaza-cyclopenta[a]pentalene] was tested, and the IC50 was 100 to 499 nM.
